Our source for the inhibition values is patent US11851449B2, “Heterocyclic amide compounds having an RORvt inhibitory action” (TAKEDA PHARMACEUTICAL COMPANY LIMITED, priority 2013, dated 2023).

For test [1], the target named is T1, RORγt (Homo sapiens, UniProt P51449).
T1 sequence (P51449 1-497 isoform P51449-2): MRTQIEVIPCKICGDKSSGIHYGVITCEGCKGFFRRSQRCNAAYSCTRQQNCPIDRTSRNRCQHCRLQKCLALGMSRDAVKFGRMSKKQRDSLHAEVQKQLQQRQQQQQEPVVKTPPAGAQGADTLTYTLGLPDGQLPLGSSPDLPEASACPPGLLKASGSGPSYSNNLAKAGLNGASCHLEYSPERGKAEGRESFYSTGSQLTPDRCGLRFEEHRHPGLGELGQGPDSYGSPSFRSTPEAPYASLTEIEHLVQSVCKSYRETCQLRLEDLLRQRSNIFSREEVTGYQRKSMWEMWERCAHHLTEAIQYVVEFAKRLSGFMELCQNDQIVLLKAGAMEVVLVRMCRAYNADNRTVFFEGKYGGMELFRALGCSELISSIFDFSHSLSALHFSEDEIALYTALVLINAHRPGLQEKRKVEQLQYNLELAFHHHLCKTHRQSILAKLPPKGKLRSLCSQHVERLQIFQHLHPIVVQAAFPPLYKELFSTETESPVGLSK
Nature of the test: Cofactor recruitment test (Alpha Screen, biotinylated SRC-1 peptide). It is filed as biochemical. As to conditions: read-out: signal value inhibitory rate (%) at test compound 1 μM. The protocol:
Cofactor Recruitment Test
Cofactor recruitment test was performed by Alpha Screen (Histidine Detection Kit, PerkinElmer) method. First, a test compound was diluted with an assay buffer (50 mM Tris-HCl (pH 7.5), 50 mM KCl, 1 mM DTT, 0.1% BSA) and added to a 384 well plate by 5 μL. […] The mixture was stood in a dark place for 1 hr, and the signal value was measured by Envision (PerkinElmer).

Test [2] addresses T1, RORγt. Nature of the test: Jurkat reporter test (human IL-17 ROR response element luciferase reporter). The following applies: read-out: luminescence level inhibitory rate (%) at test compound 3 μM. The test is classed as cell-based. Summed up:
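Jurkat cells were electroporated (1350 V, 10 ms, 3 pulses) with reporter constructs, then cultured overnight with compound in RPMI containing 10% lipid-reduced FCS, 10 mM HEPES pH 7.5 and 5 μM lovastatin. Luciferase was quantified by Bright-Glo luminescence after 10 min at room temperature.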

Test [3] addresses T1, RORγt. Kind of test: RORγt binding test (TR-FRET, fluorescent-labeled cholesterol). The following applies: read-out: binding inhibitory rate (%) of fluorescent-labeled cholesterol to RORγt at test compound 1 μM. Summed up:
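His-tagged RORγt and BODIPY-cholesterol were incubated with compound for 20 min at room temperature in Tris-HCl pH 7.5, 100 mM NaCl, 1 mM DTT and 0.1% BSA. Terbium anti-His antibody was then added for a further 20 min.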

Setting [4] is: test compound 3 μM, Jurkat cells.

Counter-ions that a name gives are not always drawn. Like-named read-outs stand apart in the source and are kept apart here.

Take `COCc1ccc([C@@H](NC(=O)C2CCOCC2)C(=O)Nc2ccc([Si](C)(C)C)c(F)c2)cc1` [Example 88, N-((1R)-2-((3-fluoro-4-(trimethylsilyl)phenyl)amino)-1-(4-(methoxymethyl)phenyl)-2-oxoethyl)tetrahydro-2H-pyran-4-carboxamide]: the figures for the inhibition at 1 µM in test [1] and in test [3] were 90.7% and 103%, respectively. The inhibition at 3 µM in test [2] (Jurkat) amounted to 98.1%.

For `COCc1ccc([C@@H](NC(=O)CC2CCOCC2)C(=O)Nc2ccc([Si](C)(C)C)c(F)c2)cc1` [Example 89, (2R)—N-(3-fluoro-4-(trimethylsilyl)phenyl)-2-(4-(methoxymethyl)phenyl)-2-((tetrahydro-2H-pyran-4-ylacetyl)amino)acetamide], the values for the inhibition at 1 µM in test [1] and in test [3] were 95.5% and 103%, respectively. Also, the inhibition at 3 µM in test [2] (Jurkat) is 101%.

Regarding `CCNC(=O)N[C@@H](C(=O)Nc1ccc([Si](C)(C)C)c(F)c1)c1ccc(COC)cc1` [Example 90, (2R)-2-((ethylcarbamoyl)amino)-N-(3-fluoro-4-(trimethylsilyl)phenyl)-2-(4-(methoxymethyl)phenyl)acetamide], the inhibition at 1 µM in test [1] was 96%; in test [3], 102%. Further, in test [2] (Jurkat), the inhibition at 3 µM was determined as 101%.

Consider `COCc1ccc([C@@H](NC(=O)C2CC(F)(F)C2)C(=O)Nc2ccc([Si](C)(C)C)c(F)c2)cc1` [Example 91, 3,3-difluoro-N-((1R)-2-((3-fluoro-4-(trimethylsilyl)phenyl)amino)-1-(4-(methoxymethyl)phenyl)-2-oxoethyl)cyclobutanecarboxamide], for which the inhibition at 1 µM in test [1] turned out to be 94.6%; in test [3], 102%. Besides, in test [2] (Jurkat), the inhibition at 3 µM is 98%.

For the compound `COCc1ccc([C@@H](NC(=O)CCC(F)F)C(=O)Nc2ccc([Si](C)(C)C)c(F)c2)cc1` [Example 92, 4,4-difluoro-N-((1R)-2-((3-fluoro-4-(trimethylsilyl)phenyl)amino)-1-(4-(methoxymethyl)phenyl)-2-oxoethyl)butanamide], the inhibition at 1 µM was 92.8% in test [1] and 102% in test [3]. Also, the inhibition at 3 µM in test [2] (Jurkat) worked out at 98.8%.

On to `COCc1ccc([C@@H](NC(=O)CC(F)(F)F)C(=O)Nc2ccc([Si](C)(C)C)c(F)c2)cc1` [Example 93, 3,3,3-trifluoro-N-((1R)-2-((3-fluoro-4-(trimethylsilyl)phenyl)amino)-1-(4-(methoxymethyl)phenyl)-2-oxoethyl)propanamide], for which the inhibition at 1 µM was 92.3% in test [1] and 102% in test [3]. In addition, in test [2] (Jurkat), the inhibition at 3 µM was determined as 99.1%.

Consider `COCc1ccc([C@@H](NC(=O)CCC(F)(F)F)C(=O)Nc2ccc([Si](C)(C)C)c(F)c2)cc1` [Example 94, 4,4,4-trifluoro-N-((1R)-2-((3-fluoro-4-(trimethylsilyl)phenyl)amino)-1-(4-(methoxymethyl)phenyl)-2-oxoethyl)butanamide], for which the inhibition at 1 µM in test [1] was 91.5%; in test [3] it was 102%. For the same compound, the inhibition at 3 µM in test [2] (Jurkat) came to 101%.

Regarding `COCc1ccc([C@@H](NC(=O)N2CC[C@@H](F)C2)C(=O)Nc2ccc([Si](C)(C)C)c(F)c2)cc1` [Example 95, (3R)-3-fluoro-N-((1R)-2-((3-fluoro-4-(trimethylsilyl)phenyl)amino)-1-(4-(methoxymethyl)phenyl)-2-oxoethyl)pyrrolidine-1-carboxamide], the inhibition at 1 µM in test [1] was 93.8%; in test [3] it was 99.3%. Besides, in test [2] (Jurkat), the inhibition at 3 µM was 99.8%.

On to `COCc1ccc([C@@H](NC(=O)N2CC[C@H](F)C2)C(=O)Nc2ccc([Si](C)(C)C)c(F)c2)cc1` [Example 96, (3S)-3-fluoro-N-((1R)-2-((3-fluoro-4-(trimethylsilyl)phenyl)amino)-1-(4-(methoxymethyl)phenyl)-2-oxoethyl)pyrrolidine-1-carboxamide], for which the inhibition at 1 µM in test [1] stood at 91.2%; in test [3] it was 98.6%. For the same compound, the inhibition at 3 µM in test [2] (Jurkat) was determined as 99.5%.

For `COCc1ccc([C@@H](NC(=O)CN2CCOCC2)C(=O)Nc2ccc([Si](C)(C)C)c(F)c2)cc1` [Example 97, (2R)—N-(3-fluoro-4-(trimethylsilyl)phenyl)-2-(4-(methoxymethyl)phenyl)-2-((morpholin-4-ylacetyl)amino)acetamide hydrochloride], the inhibition at 1 µM in test [1] came to 93.6%; in test [3], 102%. In test [2] (Jurkat), the inhibition at 3 µM was 98.3%.

`COCc1ccc([C@@H](NC(=O)c2cc(O)no2)C(=O)Nc2cc(F)c([Si](C)(C)C)cc2F)cc1` [Example 98, N-((1R)-2-((2,5-difluoro-4-(trimethylsilyl)phenyl)amino)-1-(4-(methoxymethyl)phenyl)-2-oxoethyl)-3-hydroxy-1,2-oxazole-5-carboxamide]: the values for the inhibition at 1 µM in test [1] and in test [3] were 95.8% and 102%, respectively. Moreover, in test [2] (Jurkat), the inhibition at 3 µM was found to be 99.2%.

Regarding `COc1ccc([C@@H](NC(=O)c2cc(O)no2)C(=O)Nc2cc(F)c([Si](C)(C)C)c(F)c2)cc1` [Example 99, N-((1R)-2-((3,5-difluoro-4-(trimethylsilyl)phenyl)amino)-1-(4-methoxyphenyl)-2-oxoethyl)-3-hydroxy-1,2-oxazole-5-carboxamide], the figures for the inhibition at 1 µM in test [1] and in test [3] were 94.3% and 102%, respectively. Further, the inhibition at 3 µM in test [2] (Jurkat) is 99.9%.

On to `COCc1ccc([C@@H](NC(=O)Cn2cnccc2=O)C(=O)Nc2ccc(C(C)(C)C)c(F)c2)cc1` [Example 100, (2R)—N-(4-tert-butyl-3-fluorophenyl)-2-(4-(methoxymethyl)phenyl)-2-(((6-oxopyrimidin-1(6H)-yl)acetyl)amino)acetamide], for which the results for the inhibition at 1 µM in test [1] and in test [3] were 86.3% and 99.6%, respectively. The inhibition at 3 µM in test [2] (setting [4]) stood at 99.4%.

For `COCc1ccc([C@@H](NC(=O)[C@@H]2CNC(=O)C2)C(=O)Nc2ccc(C(C)(C)C)c(F)c2)cc1` [Example 101, (3S)—N-((1R)-2-((4-tert-butyl-3-fluorophenyl)amino)-1-(4-(methoxymethyl)phenyl)-2-oxoethyl)-5-oxopyrrolidine-3-carboxamide], the inhibition at 1 µM in test [1] came out at 87.6%; in test [3], 101%. Further, the inhibition at 3 µM in test [2] (setting [4]) turned out to be 99.5%.

As for `COCc1ccc([C@@H](NC(=O)[C@H]2CNC(=O)C2)C(=O)Nc2ccc(C(C)(C)C)c(F)c2)cc1` [Example 102, (3R)—N-((1R)-2-((4-tert-butyl-3-fluorophenyl)amino)-1-(4-(methoxymethyl)phenyl)-2-oxoethyl)-5-oxopyrrolidine-3-carboxamide], the inhibition at 1 µM in test [1] is 83.8%; in test [3], 100%. Also, in test [2] (setting [4]), the inhibition at 3 µM was determined as 97.8%.

Turning to `COCc1ccc([C@@H](NC(=O)CC(C)(C)C(=O)O)C(=O)Nc2cc(F)c([Si](C)(C)C)c(F)c2)cc1` [Example 103, 4-(((1R)-2-((3,5-difluoro-4-(trimethylsilyl)phenyl)amino)-1-(4-(methoxymethyl)phenyl)-2-oxoethyl)amino)-2,2-dimethyl-4-oxobutanoic acid], the inhibition at 1 µM in test [1] is 96.2%; in test [3] it was 102%. Also, the inhibition at 3 µM in test [2] (Jurkat) was 100%.

Turning to `COCc1ccc(C(NC(=O)[C@@H]2CNC(=O)C2)C(=O)Nc2ccc(C(C)(C)C)c(Cl)c2)cc1` (stereo partly drawn) [Example 104, (3S)—N-(2-((4-tert-butyl-3-chlorophenyl)amino)-1-(4-(methoxymethyl)phenyl)-2-oxoethyl)-5-oxopyrrolidine-3-carboxamide], the inhibition at 1 µM amounted to 74.9% in test [1] and 101% in test [3]. Further, the inhibition at 3 µM in test [2] (setting [4]) is 96.1%.

In the case of `COCc1ccc([C@@H](NC(=O)Cc2nnc(C)o2)C(=O)Nc2ccc(C(C)(C)C)c(F)c2)cc1` [Example 105, (2R)—N-(4-tert-butyl-3-fluorophenyl)-2-(4-(methoxymethyl)phenyl)-2-(((5-methyl-1,3,4-oxadiazol-2-yl)acetyl)amino)acetamide], the inhibition at 1 µM in test [1] worked out at 85.5%; in test [3], 101%. Also, the inhibition at 3 µM in test [2] (setting [4]) is 100%.

For the compound `COCc1ccc([C@@H](NC(=O)CCCC(=O)O)C(=O)Nc2cc(F)c([Si](C)(C)C)c(F)c2)cc1` [Example 107, 5-(((1R)-2-((3,5-difluoro-4-(trimethylsilyl)phenyl)amino)-1-(4-(methoxymethyl)phenyl)-2-oxoethyl)amino)-5-oxopentanoic acid], the inhibition at 1 µM in test [1] is 95.7%; in test [3] it was 103%. Further, in test [2] (Jurkat), the inhibition at 3 µM turned out to be 100%.
